Legend:
HIF-1α = HIF-1α accumulation under real hypoxia (1% oxygen), western blotting and immunostaining; format: cell-based, human; conditions: 24 h
Experimental: For immunofluorescence observation, Hep3B cells were seeded on microplates at 2 or 5 × 10^4 cells/mL and cultured for 18 h. […] The medium in the microplate wells was then removed and cells were fixed with 3.7% formaldehyde in PBS for 15 min then permeabilized for 5 min with 100% cold MeOH. Cells were washed with PBS containing 1% bovine serum albumin (PBS-1% BSA), and then treated with 5% bovine serum albumin for 20 min. The cells in each well were treated with HIF-1α antibody in PBS-0.1% BSA then placed in a humidified atmosphere of 5% CO2 at 37 °C and incubated for 60 min. After being washed with PBS-0.1% BSA, treated wells of HIF-1α were incubated with Alexa Fluor 488-conjugated mouse anti-IgG antibody in PBS-0.1% BSA then incubated at room temperature for 60 min. After being washed with PBS-0.1% BSA, the dish wells were overlaid with Hoechst 33342 for 5 min at room temperature and then washed with PBS-0.1% BSA. Fluorescence was photographed with an inverted ECLIPSE Ti-U microscope (Nikon Corporation, Japan).

[1] = target: T1, hnRNPA2B1 GRD (202–353 aa) (Homo sapiens, UniProt P22626); assay: BLItz association-dissociation binding assay, GRD of hnRNPA2B1; conditions: 6XHis tagged protein, Con. 5 uM, biotin-MO-460 on streptavidin tip
T1 construct: 202–353 aa; His; made in house; host or cells: bacteria (pET28A vector)
T1 sequence (P22626 202-353): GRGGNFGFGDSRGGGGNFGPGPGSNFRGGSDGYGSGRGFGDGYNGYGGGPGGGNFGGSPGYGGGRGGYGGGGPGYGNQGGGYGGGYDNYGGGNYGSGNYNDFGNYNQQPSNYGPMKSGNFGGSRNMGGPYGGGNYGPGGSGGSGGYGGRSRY
Experimental: (§1) The binding capacity of hnRNPA2B1 to Biotin-MO-460 was also analyzed using a BLItz™ (Fortebio, Inc., CA, US) instrument with a streptavidin-coated biosensor tip (Pall, USA). The streptavidin-coated tips were pre-wetted for 10 min in an incubation buffer (10 mM HEPES pH 7.4, 1% BSA and 0.05% Tween 20). The streptavidin-coated tips were immobilized with 1 μM Biotin-MO-460 in incubation buffer (10 mM HEPES pH 7.4, 1% BSA and 0.05% Tween 20) for 5 min. […] The concentrations were then incubated with HEPES for another 3 min to desorb the protein. Analysis of the accurate and precise kinetic constants was performed by the BLItz data analysis software (BLItz Pro 1.1).

[2] = target: T2, full-length hnRNPA2B1 (1–353 aa) (Homo sapiens, UniProt P22626); assay: BLItz association-dissociation binding assay, full-length hnRNPA2B1; conditions: 6XHis tagged protein, Con. 5 uM, biotin-MO-460 on streptavidin tip
T2 construct: 1–353 aa; His; made in house; host or cells: bacteria (pET28A vector)
T2 sequence (P22626 whole entry, the tested form may be a part): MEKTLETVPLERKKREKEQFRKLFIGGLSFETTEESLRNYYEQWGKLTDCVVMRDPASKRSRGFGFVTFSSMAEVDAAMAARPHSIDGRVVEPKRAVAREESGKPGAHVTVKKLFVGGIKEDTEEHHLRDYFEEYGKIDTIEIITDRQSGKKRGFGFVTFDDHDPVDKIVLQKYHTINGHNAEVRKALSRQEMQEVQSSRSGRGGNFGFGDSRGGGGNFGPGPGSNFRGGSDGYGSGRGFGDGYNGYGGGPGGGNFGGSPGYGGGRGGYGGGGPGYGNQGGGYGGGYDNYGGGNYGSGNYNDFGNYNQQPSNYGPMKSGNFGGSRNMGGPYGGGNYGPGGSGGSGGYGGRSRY
Experimental: as §1

[3] = system: hnRNPA2B1 domain-based constructs fused to GFP; assay: Pull-down assay with GFP-fused domain constructs of hnRNPA2B1; format: binding, human; conditions: GFP-fused N-terminal RNA recognition motifs
[4] = target: T3, hnRNPA2B1 domain-based constructs fused to GFP (Homo sapiens, UniProt P22626); assay: as above; format: binding
T3 construct: expressed in transfected cells

hnRNPA2B1 RRM (1–193 aa) = target: T4, hnRNPA2B1 RRM (1–193 aa) (Homo sapiens, UniProt P22626); assay: BLItz association-dissociation binding assay, RRM of hnRNPA2B1; conditions: 6XHis tagged protein, biotin-MO-460 on streptavidin tip
T4 construct: 1–193 aa; His; made in house; host or cells: bacteria (pET28A vector)
T4 sequence (P22626 1-193): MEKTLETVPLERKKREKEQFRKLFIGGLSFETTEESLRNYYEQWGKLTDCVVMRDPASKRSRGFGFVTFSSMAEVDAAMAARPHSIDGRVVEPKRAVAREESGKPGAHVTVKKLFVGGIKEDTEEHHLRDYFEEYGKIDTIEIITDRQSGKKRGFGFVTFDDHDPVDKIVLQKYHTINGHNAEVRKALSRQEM
Experimental: as §1

melting point	Kd [1] [µM]	Kd [2] [µM]	binding of RRM1, RRM2 and RRM1-RRM2 in pull-down [3]	binding of C-terminal glycine-rich domain (GRD) in pull-down ([4]; GFP-fused GRD)	binding of full-length hnRNPA2B1 in pull-down ([4]; GFP-fused full-length hnRNPA2B1)	Kd (hnRNPA2B1 RRM (1–193 aa))	Compound	HIF-1α accumulation (HIF-1α)
–	–	–	–	–	–	–	CC(C)(O)[C@H]1Cc2cc3cc(-c4cc(O)cc(O)c4)oc3cc2O1 [(R)-(-)-moracin O, (R)-(-)-moracin-O, reference compound]	reduction in HIF-1α accumulation
165.1 to 168.2 °C (dec.)	6.6	11.4	did not bind	strongly bound	strongly bound	no specific interactions	CC(C)(O)[C@H]1Cc2cc3cc(-c4ccc(OCC(=O)NCCOCCOCCNC(=O)CCCC[C@@H]5SC[C@@H]6NC(=O)N[C@@H]65)cc4)oc3cc2O1 [biotin-MO-460, (R)-5-(2-Oxo-hexahydro-thieno[3,4-d]-imidazol-4-yl)-pentanoic acid-(2-{2-[2-(2-{4-[6-(1-hydroxy-1-methyl-ethyl)-5,6-dihydro-benzo[1,2-b;5,4-b']difuran-2-yl]-phenoxy}-acetyl-amino)-ethoxy]-ethoxy}-ethyl)-amide]	–
